Measurements reported in patent US10287530B2, “Surfactants based on monounsaturated fatty alcohol derivatives” (priority 2013, dated 2019).
Where two headings read alike, the source gives them in different places.

What was measured:
[1] = system: zein, yellow corn (maize) protein
Description: The zein test is based on solubilization by surfactants of a yellow corn (maize) protein that is normally insoluble in water unless it is denatured. The test gravimetrically determines the amount of zein dissolved by a surfactant solution. The solubility of zein in surfactant solutions correlates well with skin irritation or roughness caused by the surfactant. […] A higher zein number corresponds to a greater degree of irritation.
A 1% actives solution of each test surfactant (120 mL) is prepared. The pH of each solution is adjusted to about 7.0 with dilute aq. sulfuric acid or dilute aq. sodium hydroxide. The surfactant solution is warmed to 45° C. Zein powder (1.50 g) is added to each of three jars. Surfactant (25.0 g of 1% actives solution) is added to each jar, and to one empty jar to be used as a blank. The solutions are mixed using magnetic stirring on a temperature-controlled hotplate at 45° C. for 60 min. Each mixture is then centrifuged (2500 rpm, 15 min.), and undissolved zein powder is isolated by vacuum filtration. The residue is washed with deionized water and dried (55° C., 24 h) to constant weight. The amount of undissolved zein protein is found gravimetrically, and the results from three runs are averaged to give the % of solubilized zein and zein number.

[2] = format: physicochemical; conditions: for Emulsion stability, mL separation, 1 h / Emulsion stability, mL separation, 24 h: 342 ppm water; for Rating: overall, versus control
Description: Surfactant candidates for water soluble herbicide applications are examined as a replacement for the anionic, nonionic, or anionic/nonionic blend portion and compared to a known industry adjuvant standard for use in paraquat, a water soluble herbicide concentrate formulation. A standard dilution test is conducted whereby the concentrates are diluted in water to determine if solubility is complete.
A known industry paraquat adjuvant (2.8 g) is added and vigorously mixed for 30 s. Deionized water (8.07 g) is added, and mixing resumes for 30 s. […] The cylinder is stoppered and inverted ten times. Solubility is recorded as complete or incomplete. Cylinders are allowed to stand and the amount (in mL) and type of separation are recorded after 30 min., 1 h, 2 h, and 24 h. Results of the solubility testing appear in Table 4 below.
An eight to ten mole alkyl phenol ethoxylate surfactant (0.7 g) is added and vigorously mixed for 30 s. Test sample (0.7 g) is added and mixing resumes for 30 s. Deionized water (4.03 g) is added, and mixing resumes for 30 s.
Test sample (0.7 g) is added and vigorously mixed for 30 s. Sodium linear alkylbenzene sulfonate (“NaLAS,” 0.7 g) is added and mixing resumes for 30 s. Deionized water (4.03 g) is added, and mixing resumes for 30 s.
Test sample (1.4 g) is added and vigorously mixed for 30 s. Deionized water (4.03 g) is added, and mixing resumes for 30 s.

[3] = Agricultural dispersant screening: sedimentation of milled pesticide powder; format: physicochemical; design: key to Sedimentation results at 1 h: Trace of sediment=“Tr”; conditions: for Rating: overall, versus DF-200 and DF-500 controls
Description: The potential of a composition for use as an agricultural dispersant is evaluated by its performance with five typical pesticide active ingredients: atrazine, chlorothalonil, diuron, imidacloprid and tebuconazole. The performance of each dispersant sample is evaluated in comparison with two standard Stepsperse® dispersants: DF-200 and DF-500 (products of Stepan Company).
A screening sample is prepared as shown below for each active. Wetting agents, clays, and various additives are included or excluded from the screening process as needed. The weight percent of pesticide (“technical material”) in the formulation depends on the desired active level of the final product. The active level chosen is similar to other products on the market. If this is a new active ingredient, then the highest active level is used.
Samples are evaluated in waters of varying hardness, in this case 342 ppm and 1000 ppm. The initial evaluations are performed at ambient temperature. Other temperatures can be evaluated as desired. The 342 ppm water is made by dissolving anhydrous calcium chloride (0.304 g) and magnesium chloride hexahydrate (0.139 g) in deionized water and diluting to 1 L. The 1000 ppm water is made similarly using 0.89 g of calcium chloride and 0.40 g of magnesium chloride hexahydrate.
Technical material (60-92.5 wt. %), anionic wetting agent (0.5-1.0 wt. %), silica (0.5-1.0 wt. %), and clay (balance) are blended in a suitable container. The blend is milled to a particle size of at least a d(90) of <20μ using a hammer and air/jet mills as needed. Test dispersant (0.1 g) is added to test water (50 mL) in a beaker and stirred 1-2 min. Milled powder containing the technical material (1.0 g) is added to the dispersant solution and stirred until all powder is wet (2-5 min.). The mixture is transferred to a 100-mL cylinder using additional test water for rinsing the beaker and is then diluted to volume. The cylinder is stoppered and inverted ten times, then allowed to stand. Visual inspection is performed at t=0.5, 1.0, 2.0, and 24 hours, and the amount of sediment observed (in mL) is recorded. Trace of sediment=“Tr” (see Table 5).

[4] = Surfactant phase behavior study by cross-polarized microscopy; format: physicochemical; conditions: in deionized water, room temperature (20-22° C.); boundaries are estimates (±5%)
Description: Phase behavior is observed using an Olympus BH-2 cross-polarized microscope at 100-400× and room temperature (20° C. to 22° C.). The monounsaturated C11 alcohol derivatives (sulfates, ethoxylate sulfates, and alcohol ethoxylates) are compared with their saturated analogs. Samples are prepared by diluting the most concentrated product gradually with deionized water. When the surfactant concentration approaches a phase transition, the concentration is varied at 2-4% intervals to estimate the phase boundary. The actives level reported in Table 6 for each phase boundary is within ±5% of the true boundary. Samples are loaded between a microscope slide and cover glass and are allowed to equilibrate before observation. Microscopic texture is analyzed and used to determine the phase. For some samples, an AR 2000 rheometer (TA Instruments) is used to measure viscosity at 25° C. to further verify phase behavior.

[5] = Adjuvant (anionic/nonionic) test sample
[6] = Chlorothalonil, test water 342 ppm
[7] = Chlorothalonil, test water 1000 ppm
[8] = Imidacloprid, test water 342 ppm
[9] = Imidacloprid, test water 1000 ppm
[10] = Tebuconazole, test water 342 ppm
[11] = Tebuconazole, test water 1000 ppm

Substance	Emulsion stability, mL separation, 1 h [2, 5] [mL]	Emulsion stability, mL separation, 24 h [2, 5] [mL]	Emulsion stability, mL separation, 1 h ([2]; Anionic test sample) [mL]	Emulsion stability, mL separation, 24 h ([2]; Anionic test sample) [mL]	Emulsion stability, mL separation, 1 h ([2]; Nonionic test sample) [mL]	Emulsion stability, mL separation, 24 h ([2]; Nonionic test sample) [mL]	Rating [2]	Sedimentation results at 1 h ([3]; Atrazine, test water 342 ppm)	Sedimentation results at 24 h ([3]; Atrazine, test water 342 ppm) [mL]	Sedimentation results at 1 h ([3]; Atrazine, test water 1000 ppm) [mL]	Sedimentation results at 24 h ([3]; Atrazine, test water 1000 ppm) [mL]	Sedimentation results at 1 h [3, 6]	Sedimentation results at 24 h [3, 6] [mL]	Sedimentation results at 1 h [3, 7] [mL]	Sedimentation results at 24 h [3, 7] [mL]	Sedimentation results at 1 h ([3]; Diuron, test water 342 ppm) [mL]	Sedimentation results at 24 h ([3]; Diuron, test water 342 ppm) [mL]	Sedimentation results at 1 h ([3]; Diuron, test water 1000 ppm) [mL]	Sedimentation results at 24 h ([3]; Diuron, test water 1000 ppm) [mL]	Sedimentation results at 1 h [3, 8] [mL]	further results
1-Undecanol, 1EO Ether Sulfate, Sodium Salt [Sat. C11 alcohol 1EO Na sulfate]	0	0.2	0	0	0.2	0.5	good	Tr	1	0.5	1	0.5 mL	1	0.5	2	0.5	1	1	2	1	% solubilized zein [1]: 33.7%; zein number [1]: 68.0; Sedimentation results at 24 h [3, 8]: 2 mL; Sedimentation results at 1 h [3, 9]: 2.5 mL; Sedimentation results at 24 h [3, 9]: 2 mL; Sedimentation results at 1 h [3, 10]: Tr; Sedimentation results at 24 h [3, 10]: 0.5 mL; Sedimentation results at 1 h [3, 11]: 5 mL; Sedimentation results at 24 h [3, 11]: 3 mL; Rating [3]: equal; Estimated Phase Region as a Function of % Actives Level: Hexagonal [4]: 36-58 % actives; Estimated Phase Region as a Function of % Actives Level: Isotropic Clear [4]: 0-36 % actives; Estimated Phase Region as a Function of % Actives Level: Lamellar [4]: 58-72 % actives; Estimated Phase Region as a Function of % Actives Level: Solid/gum/paste [4]: 72-100 % actives
Undecylenic Alcohol, 1EO Ether Sulfate, Sodium Salt [Unsat. C11 alcohol 1EO Na sulfate]	0	0.5	0	0	0.2	0.25	good	Tr	1	0.5	1	Tr	1	0.5	1	0.5	1	1	2	3	% solubilized zein ([1]; 1% actives solution, pH about 7.0, 45° C., 60 min, average of three runs): 8.3%; zein number ([1]; relative to 1% actives Stepanol WA-Extra PCK (SLS) control = 100, higher = more irritating, average of three runs): 16.7; Sedimentation results at 24 h [3, 8]: 4 mL; Sedimentation results at 1 h [3, 9]: 3, 3 mL; Sedimentation results at 24 h [3, 9]: 3, 3 mL; Sedimentation results at 1 h [3, 10]: Tr; Sedimentation results at 24 h [3, 10]: 2 mL; Sedimentation observation (flock) [3, 11]: flocked; Rating [3]: equal; Estimated Phase Region as a Function of % Actives Level: Isotropic Clear [4]: 0-64 % actives; Estimated Phase Region as a Function of % Actives Level: Solid/gum/paste [4]: 74-100 % actives; Estimated Phase Region as a Function of % Actives Level: Solid/isotropic [4]: 64-74 % actives
